Experimental data reported in patent US6762190B2, “Thienylalanine derivatives as inhibitors of cell adhesion” (Aventis Pharma S.A. Deutschland GmbH Genentech, Inc., priority 1999, dated 2004).

Columns and labels:
[1] = molecular target: 293 cells cotransfected with αv and β3 subunits of the vitronectin receptor αvβ3, binding to human vitronectin (Vn) (Homo sapiens, UniProt P05106+P06756); assay: Vitronectin/293 cell test (inhibition of binding of 293 cells to human vitronectin); assay type: cell-based; settings: inhibition of binding of αvβ3-expressing 293 cells to human vitronectin
Method: 2) Vitronectin/293 Cell Test
In this test the inhibition of binding of 293 cells to human vitronectin (Vn) by the compounds of the invention is determined (the test method is abbreviated as “Vn/293 cell test” in the listing of the test results).
Purification of Human Vitronectin
Human vitronectin was isolated from human plasma and purified by affinity chromatography according to the method of Yatohgo et al., Cell Structure and Function 23 (1988) 281.
293 cells, a human embryonic kidney cell line, which were cotransfected with DNA sequences for the αv and β3 subunits of the vitronectin receptor αvβ3, were selected for a high rate of expression (>500,000 αvβ3 receptors/cell) according to the FACS method. The selected cells were cultured and sorted again by means of FACS in order to obtain a stable cell line (15 D) with expression rates >1,000,000 copies of αvβ3 per cell.
A Linbro 96-well tissue culture plate with a flat bottom was coated overnight at 4° C. with human vitronectin (0.01 mg/ml, 0.05 ml/well) in phosphate-buffered saline solution (PBS) and then blocked with 0.5% strength BSA (bovine serum albumin). Solutions of the test substances from 10^−10 mol/l to 2×10^−3 mol/l in glucose-containing DMEM medium were prepared and 0.05 ml/well of the solution were added to the plate in each case. The cells which expressed high levels of αvβ3 (for example 15 D) were suspended in glucose-containing DMEM medium and the suspension was adjusted to a content of 25,000 cells/0.05 ml of medium. 0.05 ml of this cell suspension was added to each well and the plate was incubated at 37° C. for 90 min. The plate was washed 3 times with warm PBS in order to remove unbound cells. The bound cells were lyzed in citrate buffer (25 mM, pH 5.0) which contained 0.25% Triton X-100. The hexoseamidase substrate p-nitrophenyl-N-acetyl-β-D-glucosaminide was then added and the plate was incubated at 37° C. for 90 min. The reaction was stopped with a glycine (50 mM)/EDTA (5 mM) buffer (pH 10.4) and the absorption of each well was measured at 405 to 650 nm. The data were analyzed according to standard methods.

[2] = molecular target: T1, human vitronectin receptor (VnR) αvβ3 (Homo sapiens, UniProt P05106+P06756); assay: Kistrin binding assay (αvβ3 ELISA test, K/VnR); settings: inhibition of binding of kistrin to human vitronectin receptor
T1 construct: Human vitronectin receptor was obtained from the human placenta according to the method of Pytela et al; from tissue; host or cells: human placenta
Description: The inhibition of the binding of kistrin to human vitronectin receptor (VnR) described below is a test method by which the antagonistic action of the compounds of the invention on the vitronectin receptor αvβ3 can be determined (αvβ3 ELISA Test; the test method is abbreviated as “K/VnR” in the listing of the test results).
Kistrin was purified according to the methods of Dennis et al., as described in Proc. Natl. Acad. Sci. USA 87 (1989) 2471 and Proteins: Structure, Function and Genetics 15(1993)312.
Purification of Human Vitronectin Receptor (αvβ3)
Human vitronectin receptor was obtained from the human placenta according to the method of Pytela et al., Methods Enzymol. 144 (1987) 475. Human vitronectin receptor αvβ3 can also be obtained from some cell lines (for example from 293 cells, a human embryonic kidney cell line) which are cotransfected with DNA sequences for both subunits αv and β3 of the vitronectin receptor. The subunits were extracted with octyl glycoside and then chromatographed through concanavalin A, heparin-Sepharose and S-300.
Murine monoclonal antibodies which are specific for the β3 subunits of the vitronectin receptor, were prepared according to the method of Newman et al., Blood (1985) 227, or by a similar process. The rabbit Fab 2 anti-mouse Fc conjugate to horseradish peroxidase (anti-mouse Fc HRP) was obtained from Pel Freeze (Catalog No. 715 305-1).
The ability of substances to inhibit the binding of kistrin to the vitronectin receptor can be determined using an ELISA test. For this purpose, Nunc 96-well microtiter plates were coated with a solution of kistrin (0.002 mg/ml) according to the method of Dennis et al., as described in Proteins: Structure, Function and Genetics 15 (1993) 312. The plates were then washed twice with PBS/0.05% Tween-20 and blocked by incubating (60 min) with bovine serum albumin (BSA, 0.5%, RIA grade or better) in buffer solution (Tris-HCl (50 mM), NaCl (100 mM), MgCl2 (1 mM), CaCl2 (1 mM), MnCl2 (1 mM), pH 7). Solutions of known inhibitors and of the test substances were prepared in concentrations from 2×10^−12 to 2×10^−6 mol/l in assay buffer (BSA (0.5%, RIA grade or better); Tris-HCl (50 mM), NaCl (100 mM), MgCl2 (1 mM), CaCl2 (1 mM), MnCl2 (1 mM), pH 7). The blocked plates were emptied, and in each case 0.025 ml of this solution which contained a defined concentration (2×10^−12 to 2×10^−6 mol/l) either of a known inhibitor or of a test substance, were added to each well. 0.025 ml of a solution of the vitronectin receptor in assay buffer (0.03 mg/ml) is pipetted into each well of the plate and the plate was incubated at room temperature for 60-180 min on a shaker. In the meantime, a solution (6 ml/plate) of a murine monoclonal antibody specific for the β3 subunit of the vitronectin receptor was prepared in assay buffer (0.0015 mg/ml). A second rabbit antibody (0.001 ml of stock solution/6 ml of the murine monoclonal anti-β3 antibody solution) which is an anti-mouse Fc HRP antibody conjugate was added to this solution, and this mixture of murine anti-β3 antibody and rabbit anti-mouse Fc HRP antibody conjugate was incubated during the time of the receptor-inhibitor incubation. The test plates were washed four times with PBS solution which contains 0.05% Tween-20, and in each case 0.05 ml/well of the antibody mixture was pipetted into each well of the plate and incubated for 60-180 min. The plate was washed four times with PBS/0.05% Tween-20 and then developed with 0.05 ml/well of a PBS solution which contained 0.67 mg/ml of o-phenylenediamine and 0.012% of H2O2. Alternatively to this, o-phenylenediamine can be employed in a buffer (pH 5) which contains Na3PO4 and citric acid. The color development was stopped using 1 N H2SO4 (0.05 ml/well). The absorption for each well was measured at 492-405 nm and the data were evaluated by standard methods.

T1 sequence (P06756 31-889 limits assumed): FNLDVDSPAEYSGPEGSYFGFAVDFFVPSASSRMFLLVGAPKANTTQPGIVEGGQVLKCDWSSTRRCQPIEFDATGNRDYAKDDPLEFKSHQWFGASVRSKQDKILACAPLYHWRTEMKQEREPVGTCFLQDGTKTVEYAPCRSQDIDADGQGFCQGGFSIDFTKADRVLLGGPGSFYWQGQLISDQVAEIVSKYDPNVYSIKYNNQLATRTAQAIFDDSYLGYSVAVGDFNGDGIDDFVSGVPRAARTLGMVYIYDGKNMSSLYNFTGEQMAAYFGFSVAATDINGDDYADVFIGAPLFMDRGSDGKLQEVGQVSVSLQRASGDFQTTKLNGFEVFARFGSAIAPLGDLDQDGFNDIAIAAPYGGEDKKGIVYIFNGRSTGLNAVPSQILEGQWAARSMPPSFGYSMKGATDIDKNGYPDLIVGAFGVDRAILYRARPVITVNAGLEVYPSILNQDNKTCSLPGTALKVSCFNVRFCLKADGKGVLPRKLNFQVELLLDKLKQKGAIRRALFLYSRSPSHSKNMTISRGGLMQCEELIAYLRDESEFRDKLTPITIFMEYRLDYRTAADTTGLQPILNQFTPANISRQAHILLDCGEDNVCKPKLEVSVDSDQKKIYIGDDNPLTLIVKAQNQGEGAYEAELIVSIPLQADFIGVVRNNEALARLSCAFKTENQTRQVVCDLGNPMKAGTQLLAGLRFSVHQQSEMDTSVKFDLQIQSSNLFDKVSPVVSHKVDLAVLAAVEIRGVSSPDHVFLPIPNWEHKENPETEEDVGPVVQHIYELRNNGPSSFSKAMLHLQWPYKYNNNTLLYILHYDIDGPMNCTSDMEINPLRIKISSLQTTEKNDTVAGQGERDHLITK
T1 sequence (P06756 891-1048 partner limits assumed): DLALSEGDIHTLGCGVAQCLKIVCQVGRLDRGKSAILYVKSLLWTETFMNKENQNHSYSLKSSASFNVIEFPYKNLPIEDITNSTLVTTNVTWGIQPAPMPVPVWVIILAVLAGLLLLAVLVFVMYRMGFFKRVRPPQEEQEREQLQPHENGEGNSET
T1 sequence (P05106 27-788): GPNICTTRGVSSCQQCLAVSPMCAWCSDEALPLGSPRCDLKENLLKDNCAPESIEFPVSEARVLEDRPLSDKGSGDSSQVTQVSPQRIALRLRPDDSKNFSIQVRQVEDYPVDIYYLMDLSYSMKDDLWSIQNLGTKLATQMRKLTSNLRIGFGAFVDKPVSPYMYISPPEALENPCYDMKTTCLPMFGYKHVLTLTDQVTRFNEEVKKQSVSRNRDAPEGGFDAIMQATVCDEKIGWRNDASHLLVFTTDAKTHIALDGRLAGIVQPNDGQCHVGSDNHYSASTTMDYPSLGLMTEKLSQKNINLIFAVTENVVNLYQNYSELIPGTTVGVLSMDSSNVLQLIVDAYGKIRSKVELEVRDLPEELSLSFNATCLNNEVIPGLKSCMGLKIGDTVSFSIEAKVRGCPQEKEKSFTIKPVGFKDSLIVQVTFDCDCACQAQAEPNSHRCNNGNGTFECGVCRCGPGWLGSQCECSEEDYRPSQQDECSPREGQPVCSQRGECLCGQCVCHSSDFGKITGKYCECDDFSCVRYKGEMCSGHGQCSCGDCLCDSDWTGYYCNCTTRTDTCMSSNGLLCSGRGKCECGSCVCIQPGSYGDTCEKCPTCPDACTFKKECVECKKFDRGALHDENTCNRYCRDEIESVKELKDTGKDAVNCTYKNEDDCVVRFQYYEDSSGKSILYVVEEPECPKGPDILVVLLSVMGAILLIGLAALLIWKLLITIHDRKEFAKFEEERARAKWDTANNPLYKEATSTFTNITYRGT
293 cells cotransfected with αv and β3 subunits of the vitronectin receptor αvβ3, binding to human vitronectin (Vn), sequence (P05106 whole entry): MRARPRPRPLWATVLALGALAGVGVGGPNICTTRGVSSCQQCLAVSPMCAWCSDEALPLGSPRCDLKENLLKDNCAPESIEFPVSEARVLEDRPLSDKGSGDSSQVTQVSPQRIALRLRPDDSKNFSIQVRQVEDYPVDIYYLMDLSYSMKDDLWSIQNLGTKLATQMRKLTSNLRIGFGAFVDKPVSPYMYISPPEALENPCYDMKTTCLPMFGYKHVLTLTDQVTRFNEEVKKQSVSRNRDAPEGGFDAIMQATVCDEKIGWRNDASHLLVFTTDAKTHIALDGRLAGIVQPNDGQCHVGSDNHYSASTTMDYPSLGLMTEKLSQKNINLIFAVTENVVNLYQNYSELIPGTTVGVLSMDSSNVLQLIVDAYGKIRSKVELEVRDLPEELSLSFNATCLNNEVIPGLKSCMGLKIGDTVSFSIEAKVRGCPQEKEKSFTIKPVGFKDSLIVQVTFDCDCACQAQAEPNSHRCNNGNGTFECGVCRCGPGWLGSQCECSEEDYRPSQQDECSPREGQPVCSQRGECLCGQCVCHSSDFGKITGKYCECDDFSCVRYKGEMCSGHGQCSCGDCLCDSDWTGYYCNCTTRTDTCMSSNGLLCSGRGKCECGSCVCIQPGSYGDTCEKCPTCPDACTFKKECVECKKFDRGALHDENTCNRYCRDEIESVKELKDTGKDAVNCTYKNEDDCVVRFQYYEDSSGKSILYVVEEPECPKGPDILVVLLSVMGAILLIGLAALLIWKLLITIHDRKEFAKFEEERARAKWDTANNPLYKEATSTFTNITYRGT
293 cells cotransfected with αv and β3 subunits of the vitronectin receptor αvβ3, binding to human vitronectin (Vn), sequence (P06756 whole entry): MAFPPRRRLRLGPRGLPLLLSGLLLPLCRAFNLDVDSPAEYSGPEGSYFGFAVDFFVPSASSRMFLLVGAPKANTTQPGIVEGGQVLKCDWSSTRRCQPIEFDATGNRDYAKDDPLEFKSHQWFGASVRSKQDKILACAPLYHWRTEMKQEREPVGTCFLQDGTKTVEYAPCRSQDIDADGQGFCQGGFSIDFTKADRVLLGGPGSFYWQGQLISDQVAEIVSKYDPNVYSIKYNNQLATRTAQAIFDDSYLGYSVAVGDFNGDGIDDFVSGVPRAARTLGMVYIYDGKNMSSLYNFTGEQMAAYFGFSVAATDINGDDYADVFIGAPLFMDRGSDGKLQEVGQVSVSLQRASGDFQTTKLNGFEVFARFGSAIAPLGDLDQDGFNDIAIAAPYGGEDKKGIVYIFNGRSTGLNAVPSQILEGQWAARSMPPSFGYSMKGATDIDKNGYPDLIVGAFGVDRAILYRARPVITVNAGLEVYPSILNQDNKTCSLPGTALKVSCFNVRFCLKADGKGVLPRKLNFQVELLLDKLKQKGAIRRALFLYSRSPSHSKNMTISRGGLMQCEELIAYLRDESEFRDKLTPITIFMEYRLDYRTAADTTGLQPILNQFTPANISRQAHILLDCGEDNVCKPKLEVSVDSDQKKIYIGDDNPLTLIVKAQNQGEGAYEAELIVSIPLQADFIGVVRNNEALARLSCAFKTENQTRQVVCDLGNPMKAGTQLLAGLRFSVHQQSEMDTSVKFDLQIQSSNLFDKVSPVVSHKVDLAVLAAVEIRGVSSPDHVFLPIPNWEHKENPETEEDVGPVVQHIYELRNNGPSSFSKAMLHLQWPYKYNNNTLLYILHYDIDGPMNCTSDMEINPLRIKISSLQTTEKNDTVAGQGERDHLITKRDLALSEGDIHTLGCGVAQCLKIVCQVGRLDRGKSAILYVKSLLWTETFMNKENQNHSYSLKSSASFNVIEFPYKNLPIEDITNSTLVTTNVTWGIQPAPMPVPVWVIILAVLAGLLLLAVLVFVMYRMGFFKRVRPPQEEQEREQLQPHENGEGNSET

`O=C(CCC/C=C/c1ccc(C[C@H](NC(=O)OCc2ccccc2)C(=O)O)s1)NC1=NCCCN1` [Example 14, (2S)-2-Benzyloxycarbonylamino-3-(5-(5-(1,4,5,6-tetrahydropyrimidin-2-ylcarbamoyl)-pent-1-enyl)-thiophen-2-yl)-propionic acid] was tested, and the IC50 [1] was 690 nM and the IC50 [2] was 40 nM.
For `O=C(CCCCCc1ccc(C[C@H](NC(=O)OCc2ccccc2)C(=O)O)s1)NC1=NCCCN1` [Example 13, (2S)-2-Benzyloxycarbonylamino-3-(5-(5-(1,4,5,6-tetrahydropyrimidin-2-ylcarbamoyl)-pentyl)-thiophen-2-yl)-propionic acid], the IC50 [1] was 210 nM and the IC50 [2] was 97 nM.
Work on `O=C(CCCCc1ccc(C[C@H](NS(=O)(=O)CC(F)(F)F)C(=O)O)s1)NC1=NCCCN1` [Example 7, (2S)-3-(5-(4-(1,4,5,6-Tetrahydropyrimidin-2-ylcarbamoyl)-butyl)-thiophen-2-yl)-2-(2,2,2-trifluoroethanesulfonylamino)-propionic acid] yielded an IC50 [1] of 400 nM and an IC50 [2] of 11 nM.
In the case of `O=C(CCCCc1ccc(C[C@H](NS(=O)(=O)c2ccccc2)C(=O)O)s1)NC1=NCCCN1` [Example 3, (2S)-2-Benzenesulfonylamino-3-(5-(4-(1,4,5,6-tetrahydropyrimidin-2-ylcarbamoyl)-butyl)-thiophen-2-yl)-propionic acid], the IC50 [1] is reported as 1000 nM and the IC50 [2] is reported as 9.5 nM.
In the case of `O=C(CCCCc1ccc(C[C@H](NC(=O)OCC23CC4CC(CC(C4)C2)C3)C(=O)O)s1)NC1=NCCCN1` [Example 12, (2S)-2-(Adamantan-1-ylmethoxycarbonylamino)-3-(5-(4-(1,4,5,6-tetrahydropyrimidin-2-ylcarbamoyl)-butyl)-thiophen-2-yl)-propionic acid], the IC50 [1] is reported as 220 nM and the IC50 [2] is reported as 23 nM.
`CCCCS(=O)(=O)N[C@@H](Cc1ccc(CCCCC(=O)NC2=NCCCN2)s1)C(=O)O` [Example 9, (2S)-2-(Butane-1-sulfonylamino)-3-(5-(4-(1,4,5,6-tetrahydropyrimidin-2-ylcarbamoyl)-butyl)-thiopen-2-yl)-propionic acid] was tested, and the IC50 [1] was 1800 nM and the IC50 [2] was 46 nM.
`O=C(CCCCc1ccc(C[C@H](NS(=O)(=O)c2cccc(Cl)c2)C(=O)O)s1)NC1=NCCCN1` [Example 5, (2S)-2-(3-Chlorobenzenesulfonylamino)-3-(5-(4-(1,4,5,6-tetrahydropyrimidin-2-ylcarbamoyl)-butyl)-thiophen-2-yl)-propionic acid] showed an IC50 [1] of 420 nM and an IC50 [2] of 15 nM.
For `O=C(CCCCc1ccc(C[C@H](NS(=O)(=O)c2ccc(C(F)(F)F)cc2)C(=O)O)s1)NC1=NCCCN1` [Example 6, (2S)-3-(5-(4-(1,4,5,6-Tetrahydropyrimidin-2-ylcarbamoyl)-butyl)-thiophen-2-yl)-2-(4-trifluoromethylbenzenesulfonylamino)-propionic acid], the IC50 [1] was 2000 nM and the IC50 [2] was 28 nM.
`CCCS(=O)(=O)N[C@@H](Cc1ccc(CCCCC(=O)NC2=NCCCN2)s1)C(=O)O` [Example 8, (2S)-2-(Propane-1-sulfonylamino)-3-(5-(4-(1,4,5,6-tetrahydropyrimidin-2-ylcarbamoyl)-butyl)-thiophen-2-yl)-propionic acid] gave an IC50 [1] of 1000 nM and an IC50 [2] of 60 nM.
With `O=C(CCCCc1ccc(C[C@H](NS(=O)(=O)c2ccc(Cl)cc2)C(=O)O)s1)NC1=NCCCN1` [Example 4, (2S)-2-(4-Chlorobenzenesulfonylamino)-3-(5-(4-(1,4,5,6-tetrahydropyrimidin-2-ylcarbamoyl)-butyl)-thiophen-2-yl)-propionic acid] the IC50 [1] was 850 nM and the IC50 [2] was 12 nM.
Molecule `O=C(CCCCc1ccc(C[C@H](NC(=O)OCc2ccccc2)C(=O)O)s1)NC1=NCCCN1` [Example 11, (2S)-2-Benzyloxycarbonylamino-3-(5-(4-(1,4,5,6-tetrahydropyrimidin-2-ylcarbamoyl)-butyl)-thiophen-2-yl)-propionic acid] has an IC50 [1] of 110 nM and an IC50 [2] of 9 nM.
For `O=C(CC/C=C/c1ccc(C[C@H](NC(=O)OCc2ccccc2)C(=O)O)s1)NC1=NCCCN1` [Example 15, (2S)-2-Benzyloxycarbonylamino-3-(5-(4-(1,4,5,6-tetrahydropyrimidin-2-ylcarbamoyl)-but-1-enyl)-thiophen-2-yl)-propionic acid], the IC50 [1] was 580 nM and the IC50 [2] was 35 nM.
Molecule `CC(C)(C)c1ccc(S(=O)(=O)N[C@@H](Cc2ccc(CCCCC(=O)NC3=NCCCN3)s2)C(=O)O)cc1` [Example 10, (2S)-2-(4-tert-Butylbenzenesulfonylamino)-3-(5-(4-(1,4,5,6-tetrahydropyrimidin-2-ylcarbamoyl)-butyl)-thiophen-2-yl)-propionic acid] has an IC50 [1] of 6900 nM and an IC50 [2] of 95 nM.
Work on `O=C(CCCCc1ccc(C[C@H](NS(=O)(=O)c2cccc3ccccc23)C(=O)O)s1)NC1=NCCCN1` [Example 1, (2S)-2-(Naphthalene-1-sulfonylamino)-3-(5-(4-(1,4,5,6-tetrahydropyrimidin-2-ylcarbamoyl)-butyl)-thiophen-2-yl)-propionic Acid] yielded an IC50 [1] of 420 nM and an IC50 [2] of 23 nM.
For `O=C(CCCCc1ccc(C[C@H](NS(=O)(=O)c2ccc3ccccc3c2)C(=O)O)s1)NC1=NCCCN1` [Example 2, (2S)-2-(Naphthalene-2-sulfonylamino)-3-(5-(4-(1,4,5,6-tetrahydropyrimidin-2-ylcarbamoyl)-butyl)-thiophen-2-yl)-propionic acid], the IC50 [1] was 330 nM and the IC50 [2] was 15 nM.
